Assays:
CB1-Receptor = target: T1, CB1-Receptor (Homo sapiens, UniProt P21554); assay: In-vitro determination of affinity to CB1 receptor (radioligand [^3H]-CP55940); format: binding
T1 construct: purchased Receptor Biology, Inc
Experimental: (§1) I. In-vitro determination of affinity to CB1/CB2-Receptors
(§2) The in-vitro determination of the affinity of the substituted pyrazoline compounds to CB1/CB2-Rezeptors is carried out as described in the publication of Ruth A. Ross, Heather C. Brockie et al., "Agonist-inverse agonist characterization at CB1 and CB2 cannabinoid receptors of L-759633. L759656 and AM630", British Journal of Pharmacology, 126, 665-672, (1999), whereby the transfected human CB1 and CB2 receptors of Receptor Biology, Inc. are used. The radioligand used for both receptors is [^3H]-CP55940. The respective parts of the description is hereby incorporated by reference and forms part of the present disclosure.

CB2-Receptor = target: T2, CB2-Receptor (Homo sapiens, UniProt P34972); assay: In-vitro determination of affinity to CB2 receptor (radioligand [^3H]-CP55940); format: binding
T2 construct: purchased Receptor Biology, Inc
Experimental: as §1, §2

Male NMRI mice [1] = assay: Mouse tetrad model: hot plate analgesia; format: in vivo; settings: for Agonistic effect A: Hot-Plate test: 5 mg/kg i.v.; for Antagonistic Effect A: Hot-Plate test: 5 mg/kg i.v. prior to Win 55212-2 in a dose of 1.25mg/kg i.v.
Source text: (§3) II. In-vivo bioassay system for determination of cannabinoid activity
(§4) Substances with affinity for cannabinoid receptors are known to produce a wide range of pharmacological effects. It is also known that intravenous administration of a substance with affinity for cannabinoid receptors in mice produces analgesia , hypothermia, sedation and catalepsy. Individually, none of these effects can be considered as proof that a tested substance has affinity for cannabinoid-receptors, since all of these effects are common for various classes of centrally active agents. However, substances, which show all of these effects, i.e. substances that are active in this so-called tetrad model are considered to have affinity for the cannabinoid receptors. It has further been shown that cannabinoid receptor antagonists are higly effective in blocking the effects of a cannabinoid agonist in the mouse tetrad model.
(§5) The tetrad model is described, for example, in the publication of A. C. Howlett et al, international Union of Pharmacology XXVII. Classification of Cannabinoid Receptors, Pharmacol Rev 54, 161-202 , 2002 and David R. Compton et al., "In-vivo Characterization of a Specific Cannabinoid Receptor Antagonist (SR141716A) :Inhibition of Tetrahydrocannbinol- induced Responses and Apparent Agonist Activity", J. Pharmacol. Exp. Ther. 277 , 2, 586-594, 1996. The corresponding parts of the description are hereby incorporated by reference. […]
(§6) Before testing in the behavioral procedures given below, mice are acclimatized to the experimental setting. Pre-Treatment control values are determined for analgesia hot plate latency (in seconds), rectal temperature, sedation and catalepsy.
(§7) In order to determine the agonistic activty of the substance to be tested, the mice are injected intravenously with the substance to be tested or the vehicle alone. 15 minutes after injection, latency in hot plate analgesia is measured. Rectal temperature, sedation and catalepsy are measured 20 minutes after injection.
(§8) In order to determine the antagonistic activity the identical procedure is used as for the determination of the agonistic effects, but with the difference that the substance to be evaluated for its antagonistic activity is injectected 5 minutes before the intravenous injection of 1.25 mg/kg Win-55,212 a known cannabinoid-receptor agonist.
The hot plate analgesia is determined according to the method described in Woolfe D. et al. "The evaluation of analgesic action of pethidine hydrochloride (Demerol)", J. Pharmacol. Exp. Ther. 80, 300-307,1944. […]
The mice are placed on a hot plate (Harvard Analgesimeter) at 55 ± 0.5 °C until they show a painful sensation by licking their paws or jumping and the time for these sensations to occur is recorded. This reading is considered the basal value (B). […]

Male NMRI mice [2] = assay: Mouse tetrad model: hypothermia; format: in vivo; settings: for Agonistic effect B: Hypothermia: 5 mg/kg i.v.; for Antagonistic Effect B: Hypothermia: 5 mg/kg i.v. prior to Win 55212-2 in a dose of 1.25mg/kg i.v.
Source text: as §3, §4
as §5, with “1996.” for “1996. The corresponding parts of the description are hereby incorporated by reference.”
as §6, §7, §8
Hypothermia is determined according to the method described in David R. Compton et al. "In-vivo Characterization of a Specific Cannabinoid Receptor Antagonist (SR141716A) Inhibition of Tetrahydrocannbinol- induced Responses and Apparent Agonist Activity", J. Pharmacol Exp Ther. 277 , 2, 586-594, 1996. […]
The base-line rectal temperatures are determined with a thermometer (Yello Springs Instruments Co., Panlabs) and a thermistor probe inserted to 25mm before the administration of the substance to be tested. […]

Male NMRI mice [3] = assay: Mouse tetrad model: catalepsy; format: in vivo; settings: for Agonistic effect C: Catalepsy: 5 mg/kg i.v.; for Antagonistic Effect C: Catalepsy: 5 mg/kg i.v. prior to Win 55212-2 in a dose of 1.25mg/kg i.v.
Source text: as §3, §4
as §5, with “1996.” for “1996. The corresponding parts of the description are hereby incorporated by reference.”
as §6, §7, §8
Catalepsy is determined according to the method described in Alpermann H. G. et al. "Pharmacological effets of Hoe 249: A new potential antidepressant", Drugs Dev. […]
The cataleptic effect of the substance to be tested is evaluated according to the duration of catalepsy, whereby the animals are placed head downwards with their kinlegs upon the top of the wooden block. […]
The percentage of catalepsy is determined according ot the following formula: %Catalepsy = arithmetic mean/6 × 100 [formula]

Male NMRI mice [4] = assay: Mouse tetrad model: sedation and ataxia; format: in vivo; settings: for Agonistic effect D: Sedation: 5 mg/kg i.v.; for Antagonistic Effect D: Sedation: 5 mg/kg i.v. prior to Win 55212-2 in a dose of 1.25mg/kg i.v.
Source text: as §3, §4
The tetrad model is described, for example, in the publication of A. C. Howlett et al, international Union of Pharmacology XXVII. Classification of Cannabinoid Receptors, Pharmacol Rev 54, 161-202 , 2002 and David R. Compton et al., "In-vivo Characterization of a Specific Cannabinoid Receptor Antagonist (SR141716A) :Inhibition of Tetrahydrocannbinol- induced Responses and Apparent Agonist Activity", J. Pharmacol. Exp. Ther. 277 , 2, 586-594, 1996. The corresponding parts of the description are hereby incorporated by reference.
Male NMRI mice with a weight of 20-30 g (Harlan, Barcelona, Spain) are used in all of the following experiments.
as §6, §7, §8
Determination of sedation and ataxia
Sedation and ataxia is determined according to the method described in Desmet L. K. C. et al. "Anticonvulsive properties of Cinarizine and Flunarizine in Rats and Mice", Arzneim. -Forsch. (Frug Res) 25, 9, 1975. […]
The percentage of sedation is determined according to the formula: %of sedation = arithmetic mean/3 × 100 [formula]

T2 sequence (P34972 whole entry): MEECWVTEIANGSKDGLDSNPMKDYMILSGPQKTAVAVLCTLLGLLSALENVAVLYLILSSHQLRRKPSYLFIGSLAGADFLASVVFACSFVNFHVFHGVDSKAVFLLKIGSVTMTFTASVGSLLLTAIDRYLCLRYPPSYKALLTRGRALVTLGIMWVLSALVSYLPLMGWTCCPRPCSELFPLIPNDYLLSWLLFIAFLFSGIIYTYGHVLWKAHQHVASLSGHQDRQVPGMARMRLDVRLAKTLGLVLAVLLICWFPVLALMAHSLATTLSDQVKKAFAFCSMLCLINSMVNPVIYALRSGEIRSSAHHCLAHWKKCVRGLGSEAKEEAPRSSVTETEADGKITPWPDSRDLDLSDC
T1 sequence (P21554 whole entry): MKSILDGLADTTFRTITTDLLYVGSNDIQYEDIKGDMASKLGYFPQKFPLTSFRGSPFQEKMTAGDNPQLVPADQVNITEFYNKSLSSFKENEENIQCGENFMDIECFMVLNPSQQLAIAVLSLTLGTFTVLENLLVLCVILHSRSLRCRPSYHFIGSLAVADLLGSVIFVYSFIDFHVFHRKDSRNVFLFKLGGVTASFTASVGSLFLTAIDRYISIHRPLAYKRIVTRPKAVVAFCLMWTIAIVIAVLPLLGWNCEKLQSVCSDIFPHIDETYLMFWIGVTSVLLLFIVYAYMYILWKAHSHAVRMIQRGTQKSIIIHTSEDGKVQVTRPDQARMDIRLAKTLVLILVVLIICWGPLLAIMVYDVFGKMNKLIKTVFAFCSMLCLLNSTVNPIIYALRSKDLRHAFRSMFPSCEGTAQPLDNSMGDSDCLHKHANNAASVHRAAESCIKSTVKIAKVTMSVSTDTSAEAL

Compound | Ki (CB1-Receptor) | Ki (CB2-Receptor) | Agonistic effect A: Hot-Plate test (Male NMRI mice [1]) | Antagonistic Effect A: Hot-Plate test (Male NMRI mice [1]) | Agonistic effect B: Hypothermia (Male NMRI mice [2]) | Antagonistic Effect B: Hypothermia (Male NMRI mice [2]) | Agonistic effect C: Catalepsy (Male NMRI mice [3]) | Antagonistic Effect C: Catalepsy (Male NMRI mice [3]) | Agonistic effect D: Sedation (Male NMRI mice [4]) | Antagonistic Effect D: Sedation (Male NMRI mice [4])
O=C(NN1CCCCC1)C1=NN(c2ccc(Cl)cc2Cl)C(c2ccc(Cl)cc2)C1 (stereo not shown) [Example 1, N-piperidinyl-5-(4-chlorophenyl)-1-(2,4-dichlorophenyl)-4,5-dihydro-1H-pyrazole-3-carboxamide] | < 25 nM | > 1000 nM | 0 | 74 | 0 | 100 | 0 | 100 | 0 | 100
O=C(C1=NN(c2ccc(Cl)cc2Cl)C(c2ccc(Cl)cc2)C1)N1CCCCC1 (stereo not shown) [Example 5, [5-(4-Chloro-phenyl)-1-(2,4-dichloro-phenyl)-4,5-dihydro-1H-pyrazol-3-yl]-piperidin-1-yl-methanone] | – | ~1000 nM | 0 | 50 | 50 | 40 | 0 | 20 | 0 | 20

— patent EP1745781A1, “Combination of pyrazoline type cannabinoid receptor antagonist and statin” (LABORATORIOS DEL DR. ESTEVE, S.A., priority 2005, dated 2007)
